Laboratory results: publication PMC9632963, “Preclinical characterization and phase I clinical trial of CT053PTSA targets MET, AXL, and VEGFR2 in patients with advanced solid tumors” (Frontiers in Immunology, 2022)
pIC50: −log10 of the molar value. Values joined by “and” are separate entries in the source; they are usually repeats but may differ in a detail not shown here. Equal entries are not always repeated. “Also recorded” adds a separate entry of the source.

Key:
[1] = test system: patients with advanced solid tumors; assay: Phase I trial: antitumor activity (RECIST 1.1); type: in vivo, human
Description: Descriptive statistics of safety are presented per CTCAE v4.0. Subjects who received at least one dose of CT053PTSA were considered eligible to be evaluated and included in safety analyses. […] According to the RECIST 1.1 criteria, imaging examinations were performed at each specified time point in the protocol. The antitumor activity was measured by RECIST1.1.

[2] = target: HIPK4 (Homo sapiens, UniProt Q8NE63); assay: Kinase inhibition assay (LANCE or HTRF); type: biochemical; conditions: ATP at Km
HIPK4, sequence (Q8NE63 whole entry): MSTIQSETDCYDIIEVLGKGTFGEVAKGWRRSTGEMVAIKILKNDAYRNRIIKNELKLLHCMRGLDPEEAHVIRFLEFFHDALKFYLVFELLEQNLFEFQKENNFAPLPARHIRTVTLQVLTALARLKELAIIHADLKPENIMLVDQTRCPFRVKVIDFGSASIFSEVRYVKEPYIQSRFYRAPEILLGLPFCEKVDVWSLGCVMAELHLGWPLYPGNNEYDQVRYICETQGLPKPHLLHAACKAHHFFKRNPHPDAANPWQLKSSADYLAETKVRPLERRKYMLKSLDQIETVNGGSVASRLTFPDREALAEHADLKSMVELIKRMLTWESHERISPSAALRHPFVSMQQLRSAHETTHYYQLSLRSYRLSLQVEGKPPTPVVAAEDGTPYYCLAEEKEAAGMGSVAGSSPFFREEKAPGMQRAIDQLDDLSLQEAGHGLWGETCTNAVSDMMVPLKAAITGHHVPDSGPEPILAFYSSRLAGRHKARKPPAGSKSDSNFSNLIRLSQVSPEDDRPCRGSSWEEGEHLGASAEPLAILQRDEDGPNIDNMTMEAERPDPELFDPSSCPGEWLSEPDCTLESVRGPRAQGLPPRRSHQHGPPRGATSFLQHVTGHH
Description: The IC50 values were determined by measuring phosphorylation of peptide substrate poly at ATP concentrations at the Km.

[3] = test system: HS746T; assay: Cell proliferation assay (CellTiter-Glo, 72 hours); type: cell-based; conditions: Homo sapiens, read-out: IC50 anti-proliferative
Description: (§1) Human gastric tumor cell lines with high MET expression levels, namely, the GTL-16, MKN45, SNU638, Hs746T, SNU-620, and SNU-5 cell lines, were used in the assay. These cell lines were obtained from American Type Culture Collection (ATCC), Japanese Collection of Research Bioresources (JCRB), Shanghai Institutes of Biological Sciences, CAS (SIBS), Korean Cell Line Bank (KCLB) or National Institutes of Health (NIH). […] Cell viability was measured after 72 hours using a CellTiter-Glo Luminescent Cell Viability Assay Kit (Promega, WI, USA) according to the manufacturer’s instructions.

[4] = test system: SNU-216; assay: Cell proliferation assay (CellTiter-Glo, 72 hours); type: cell-based; conditions: Homo sapiens, read-out: IC50 anti-proliferative
Description: as §1

| SMILES | duration of SD in single patients ([1]; 60 mg QD) | duration of SD in single patient ([1]; 100 mg dose group) [weeks] | CR or PR ([1]; 17 evaluated patients) | DCR ([1]; 17 evaluated patients) [%] | pIC50 [2] | pIC50 [3] | pIC50 [4] |
| --- | --- | --- | --- | --- | --- | --- | --- |
| Cc1c(C(=O)Nc2ccc(Oc3ccnc4cc(OCC(C)(C)O)ccc34)c(F)c2)c(=O)n(-c2ccccc2)n1C [CT053PTSA] | 16 weeks and 24 weeks | 8 | none of them achieved CR or PR; also recorded: No CR or PR was observed | 29.4 | – | – | – |
| Cc1c(C(=O)Nc2ccc(Oc3ccnc4cc(OCC(C)(C)O)ccc34)c(F)c2)c(=O)n(-c2ccccc2)n1C [CT053] | – | – | – | – | 6.74 | 6.85 | < 5.00 |
